Bridge positions count the residues as written; N and C are the ends. Peptide text beside a SMILES is read from it. I, II: the chains in the order shown.

This note sets out measurements from ChEMBL document CHEMBL4373723 (J Med Chem, 2019).

Data set [1] addresses T1, Frizzled-7 (Homo sapiens, UniProt O75084). The format is cell-based. The note with it: cho.
Data set [2] deals with T1, Frizzled-7. Put plainly: biochemical. The format is cell-based, CHO. Particulars: read-out: Kd; call rule not given here.
Data set [3] has as its target T1, Frizzled-7. Put plainly: Inhibition of Frizzled-7 in HEK293 cells expressing Wnt assessed as reduction in Wnt signaling by firefly luciferase reporter gene assay. The data set is classed as cell-based.
In data set [4] the target is T1, Frizzled-7. The note with it: CHO.
Description: Binding affinity to recombinant human Frizzled-7 (Gln33 to Leu185 residues)/human IgG1 chimeric protein expressed in CHO cells assessed as association rate constant by SPR assay
The target in data set [5] is Frizzled-1 (Homo sapiens, UniProt Q9UP38). Put plainly: Binding affinity to recombinant human Frizzled-1 (Gln73 to His253 residues)/human IgG1 chimeric protein expressed in mouse NS0 cells by SPR assay.
Sequence of Frizzled-1 (Q9UP38 whole entry): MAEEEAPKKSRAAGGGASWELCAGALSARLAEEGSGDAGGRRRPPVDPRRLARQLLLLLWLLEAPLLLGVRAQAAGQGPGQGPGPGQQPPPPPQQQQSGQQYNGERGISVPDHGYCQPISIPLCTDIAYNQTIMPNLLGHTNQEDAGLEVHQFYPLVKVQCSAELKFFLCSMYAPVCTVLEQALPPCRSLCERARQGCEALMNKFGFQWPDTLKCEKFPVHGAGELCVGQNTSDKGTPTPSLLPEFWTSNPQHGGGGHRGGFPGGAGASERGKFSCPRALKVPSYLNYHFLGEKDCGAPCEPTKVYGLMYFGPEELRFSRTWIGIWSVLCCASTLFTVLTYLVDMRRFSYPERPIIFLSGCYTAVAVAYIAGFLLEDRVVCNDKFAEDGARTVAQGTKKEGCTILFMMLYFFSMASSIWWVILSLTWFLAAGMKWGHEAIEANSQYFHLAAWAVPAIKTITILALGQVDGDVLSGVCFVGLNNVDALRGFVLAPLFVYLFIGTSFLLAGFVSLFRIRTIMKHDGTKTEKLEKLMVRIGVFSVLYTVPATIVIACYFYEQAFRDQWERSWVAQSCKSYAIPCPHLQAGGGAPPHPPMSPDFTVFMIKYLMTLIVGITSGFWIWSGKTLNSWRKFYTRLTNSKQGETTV
A short description of data set [6]: Binding affinity to recombinant human/mouse Frizzled-2 (Gln29 to Leu168 residues)/human IgG1 chimeric protein expressed in mouse NS0 cells by SPR assay.
In data set [7] the target is Frizzled-5 (Homo sapiens, UniProt Q13467). Put plainly: Binding affinity to recombinant human Frizzled-5 (Ala27 to Pro167 residues)/human IgG1 chimeric protein expressed in mouse NS0 cells by SPR assay.
Sequence of Frizzled-5 (Q13467 whole entry): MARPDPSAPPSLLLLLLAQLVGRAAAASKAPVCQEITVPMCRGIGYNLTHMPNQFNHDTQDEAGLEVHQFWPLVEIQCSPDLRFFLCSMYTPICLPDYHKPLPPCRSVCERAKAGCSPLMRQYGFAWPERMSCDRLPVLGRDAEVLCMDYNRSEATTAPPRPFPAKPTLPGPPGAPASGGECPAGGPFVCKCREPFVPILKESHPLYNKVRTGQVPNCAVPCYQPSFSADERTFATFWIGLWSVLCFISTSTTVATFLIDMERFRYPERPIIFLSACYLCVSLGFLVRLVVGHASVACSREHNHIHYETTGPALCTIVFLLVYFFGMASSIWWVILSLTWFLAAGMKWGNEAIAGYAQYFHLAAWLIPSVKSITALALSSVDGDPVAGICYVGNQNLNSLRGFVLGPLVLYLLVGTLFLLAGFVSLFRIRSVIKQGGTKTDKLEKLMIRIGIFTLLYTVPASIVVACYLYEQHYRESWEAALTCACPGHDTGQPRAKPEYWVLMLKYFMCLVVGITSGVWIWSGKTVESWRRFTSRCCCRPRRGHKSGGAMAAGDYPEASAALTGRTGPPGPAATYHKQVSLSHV
Data set [8] addresses Frizzled-8 (Homo sapiens, UniProt Q9H461). The data set can be described thus: Binding affinity to recombinant human Frizzled-8 (Ala25 to Pro172 residues)/human IgG1 chimeric protein expressed in CHO cells […] by SPR assay.
Data set [9] deals with T2, Frizzled-4 (Homo sapiens, UniProt Q9ULV1).
T2 sequence (Q9ULV1 whole entry): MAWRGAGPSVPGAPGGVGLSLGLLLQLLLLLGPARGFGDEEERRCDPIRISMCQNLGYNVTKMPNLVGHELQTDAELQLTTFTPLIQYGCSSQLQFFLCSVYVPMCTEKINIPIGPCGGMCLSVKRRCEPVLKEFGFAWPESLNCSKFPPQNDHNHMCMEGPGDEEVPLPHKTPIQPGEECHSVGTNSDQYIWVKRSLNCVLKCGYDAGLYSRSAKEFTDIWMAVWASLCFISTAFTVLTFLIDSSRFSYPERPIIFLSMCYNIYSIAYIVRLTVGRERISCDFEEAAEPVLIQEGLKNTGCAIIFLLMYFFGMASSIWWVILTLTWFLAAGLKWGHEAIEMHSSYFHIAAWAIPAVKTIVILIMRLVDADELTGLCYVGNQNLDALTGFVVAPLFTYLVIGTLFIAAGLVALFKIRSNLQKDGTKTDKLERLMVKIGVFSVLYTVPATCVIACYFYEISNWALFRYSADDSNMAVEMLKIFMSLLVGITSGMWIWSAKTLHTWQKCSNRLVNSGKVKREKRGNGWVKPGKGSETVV
The data set can be described thus: Binding affinity to recombinant human Frizzled-4 (Phe37 to Glu180 residues)/human IgG1 chimeric protein expressed in mouse NS0 cells by SPR assay.

The target in data set [10] is T3, Frizzled-9 (Homo sapiens, UniProt O00144).
T3 sequence (O00144 whole entry): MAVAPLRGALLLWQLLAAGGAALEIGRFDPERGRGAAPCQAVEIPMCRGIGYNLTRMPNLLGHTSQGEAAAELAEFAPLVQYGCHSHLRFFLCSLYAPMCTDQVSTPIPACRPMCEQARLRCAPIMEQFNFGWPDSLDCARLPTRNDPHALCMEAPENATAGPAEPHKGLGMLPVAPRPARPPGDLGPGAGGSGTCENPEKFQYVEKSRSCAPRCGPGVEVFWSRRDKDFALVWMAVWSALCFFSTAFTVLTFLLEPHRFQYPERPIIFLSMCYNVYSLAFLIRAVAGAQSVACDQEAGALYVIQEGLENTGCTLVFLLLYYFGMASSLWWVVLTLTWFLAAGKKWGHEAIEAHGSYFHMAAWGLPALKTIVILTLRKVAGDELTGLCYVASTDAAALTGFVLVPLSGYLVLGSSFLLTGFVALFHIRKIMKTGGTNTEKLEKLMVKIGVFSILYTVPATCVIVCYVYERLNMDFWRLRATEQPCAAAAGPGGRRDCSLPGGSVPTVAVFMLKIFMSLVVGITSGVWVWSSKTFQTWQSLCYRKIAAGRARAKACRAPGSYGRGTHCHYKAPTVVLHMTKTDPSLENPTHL
Put plainly: Binding affinity to Frizzled-9 CRD (unknown origin).

The target in data set [11] is T4, Frizzled-10 (Homo sapiens, UniProt Q9ULW2).
T4 sequence (Q9ULW2 whole entry): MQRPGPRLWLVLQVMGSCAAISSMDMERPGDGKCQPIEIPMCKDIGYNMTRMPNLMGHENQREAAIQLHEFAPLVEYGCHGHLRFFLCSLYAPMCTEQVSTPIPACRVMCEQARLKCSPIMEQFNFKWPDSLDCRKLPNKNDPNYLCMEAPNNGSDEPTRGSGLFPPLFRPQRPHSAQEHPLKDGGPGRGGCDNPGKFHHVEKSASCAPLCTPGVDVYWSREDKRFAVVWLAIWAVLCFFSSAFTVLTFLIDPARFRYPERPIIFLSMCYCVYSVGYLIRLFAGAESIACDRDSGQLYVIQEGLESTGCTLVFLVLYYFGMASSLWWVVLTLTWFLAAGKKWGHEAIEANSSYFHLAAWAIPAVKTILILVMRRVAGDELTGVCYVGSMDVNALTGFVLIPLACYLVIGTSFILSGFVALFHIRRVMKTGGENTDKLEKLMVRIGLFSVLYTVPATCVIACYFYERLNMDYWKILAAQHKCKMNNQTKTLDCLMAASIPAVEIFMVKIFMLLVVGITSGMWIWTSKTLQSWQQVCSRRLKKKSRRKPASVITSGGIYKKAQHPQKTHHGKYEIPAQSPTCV
Put plainly: Binding affinity to Frizzled-10 CRD (unknown origin).

Data set [12] addresses T1, Frizzled-7. The data set can be described thus: Binding affinity to recombinant human Frizzled-7 (Gln33 to Leu185 residues)/human IgG1 chimeric protein expressed in CHO cells assessed as reduction in interaction of TcdB with FZD7 incubated for 1 hr by competition ELISA. The data set is classed as cell-based.
Data set [13] can be described thus: Binding affinity to recombinant human/mouse Frizzled-2 (Gln29 to Leu168 residues)/human IgG1 chimeric protein expressed in mouse NS0 cells assessed as reduction in interaction of TcdB with FZD7 incubated for 1 hr by competition ELISA. The format is cell-based.
Data set [14] in a line: Stability in presence of TCEP assessed as disulfide reduction at 20 uM measured over 40 mins at 37 degC by LC-MS analysis. The data set is classed as physicochemical.
The conditions of data set [15]: mouse, serum, 24 h, 200 µM.
For data set [16] the following is noted: 40 min, 20 µM.
The conditions of data set [17]: 40 min, 20 µM. This is another data set of the same source.

Sequence of Frizzled-8 (Q9H461 whole entry): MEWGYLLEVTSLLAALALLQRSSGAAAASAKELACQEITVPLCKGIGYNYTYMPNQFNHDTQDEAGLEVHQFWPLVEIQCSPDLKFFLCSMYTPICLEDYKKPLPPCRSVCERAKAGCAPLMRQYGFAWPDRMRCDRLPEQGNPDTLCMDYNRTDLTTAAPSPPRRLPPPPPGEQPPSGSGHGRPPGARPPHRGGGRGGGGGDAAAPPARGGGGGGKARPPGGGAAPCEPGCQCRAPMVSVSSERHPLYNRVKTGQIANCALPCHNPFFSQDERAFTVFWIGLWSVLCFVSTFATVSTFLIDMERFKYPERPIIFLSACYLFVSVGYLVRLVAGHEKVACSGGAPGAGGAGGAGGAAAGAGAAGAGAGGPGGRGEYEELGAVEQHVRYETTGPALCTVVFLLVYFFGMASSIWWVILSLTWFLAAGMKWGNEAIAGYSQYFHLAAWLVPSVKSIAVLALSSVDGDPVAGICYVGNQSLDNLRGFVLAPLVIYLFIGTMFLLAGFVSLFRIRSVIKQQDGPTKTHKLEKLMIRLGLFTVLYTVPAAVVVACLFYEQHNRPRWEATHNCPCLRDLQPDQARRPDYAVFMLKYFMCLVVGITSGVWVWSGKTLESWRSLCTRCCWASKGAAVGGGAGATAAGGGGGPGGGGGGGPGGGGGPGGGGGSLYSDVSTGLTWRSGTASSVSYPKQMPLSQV

Regarding `CC[C@H](C)[C@H](NC(=O)[C@H](Cc1cnc[nH]1)NC(=O)[C@H](CSSC[C@H](NC(=O)[C@H](Cc1c[nH]c2ccccc12)NC(=O)[C@H](CC(C)C)NC(=O)[C@H](CCCCN)NC(=O)[C@H](CC(C)C)NC(=O)[C@H](CC(=O)O)NC(=O)[C@H](CC(=O)O)NC(=O)[C@@H](NC(C)=O)[C@H](C)O)C(=O)N[C@@H](Cc1cnc[nH]1)C(=O)N[C@H](C(=O)N[C@@H](CCSC)C(=O)N[C@@H](Cc1ccc(O)cc1)C(N)=O)[C@@H](C)CC)NC(=O)[C@H](Cc1c[nH]c2ccccc12)NC(=O)[C@H](CC(C)C)NC(=O)[C@H](CCCCN)NC(=O)[C@H](CC(C)C)NC(=O)[C@H](CC(=O)O)NC(=O)[C@H](CC(=O)O)NC(=O)[C@@H](NC(C)=O)[C@H](C)O)C(=O)N[C@@H](CCSC)C(=O)N[C@@H](Cc1ccc(O)cc1)C(N)=O`, the Kd in data set [1] was found to be 0.46 ×10⁻³ /s; in data set [2], 0.045 nM. In data set [3], the IC50 was found to be 4.8 nM. In data set [4], this compound displayed a Ka of 103 ×10⁵ /M/s.
Consider `CSCC[C@H](NC(=O)[C@@H](NC(=O)[C@H](Cc1cnc[nH]1)NC(=O)[C@H](CSSC[C@H](NC(=O)[C@H](Cc1c[nH]c2ccccc12)NC(=O)[C@H](Cc1ccccc1)NC(=O)[C@H](CCC(=O)O)NC(=O)[C@H](CC(C)C)NC(=O)[C@H](CC(=O)O)NC(=O)[C@H](CC(=O)O)NC(=O)[C@H](CO)NC(=O)[C@@H]1CCCN1C(=O)[C@H](CC(C)C)NC(C)=O)C(=O)N[C@@H](Cc1cnc[nH]1)C(=O)N[C@H](C(=O)N[C@@H](CCSC)C(=O)N[C@@H](Cc1ccc(O)cc1)C(N)=O)C(C)C)NC(=O)[C@H](Cc1c[nH]c2ccccc12)NC(=O)[C@H](Cc1ccccc1)NC(=O)[C@H](CCC(=O)O)NC(=O)[C@H](CC(C)C)NC(=O)[C@H](CC(=O)O)NC(=O)[C@H](CC(=O)O)NC(=O)[C@H](CO)NC(=O)[C@@H]1CCCN1C(=O)[C@H](CC(C)C)NC(C)=O)C(C)C)C(=O)N[C@@H](Cc1ccc(O)cc1)C(N)=O` (I: Ac-LPSDDLEFWCHVMY-NH2 / II: Ac-LPSDDLEFWCHVMY-NH2; disulfide I:10-II:10), for which the Kd was 5.6 ×10⁻³ /s in [1]; 1.18 nM in data set [2]; 2.42 nM in [5]; 1.46 nM in data set [6]; “Not Active” in data set [7]; “Not Active” in [8]. The Kd result in data set [9], in data set [10] and in data set [11] was “Not Active” throughout. In data set [3], the IC50 was 32 nM. In addition, the inhibition result in [12] and in data set [13] was “Dose-dependent effect” each time. Also, in data set [4], the Ka was found to be 47.5 ×10⁵ /M/s.
With `CSCC[C@H](NC(=O)[C@@H](NC(=O)[C@H](Cc1cnc[nH]1)NC(=O)[C@H](CSSC[C@H](NC(=O)[C@H](Cc1c[nH]c2ccccc12)NC(=O)[C@H](Cc1ccccc1)NC(=O)[C@H](CCC(=O)O)NC(=O)[C@H](CC(C)C)NC(=O)[C@H](CC(=O)O)NC(=O)[C@H](CC(=O)O)NC(=O)[C@H](CO)NC(C)=O)C(=O)N[C@@H](Cc1cnc[nH]1)C(=O)N[C@H](C(=O)N[C@@H](CCSC)C(=O)N[C@@H](Cc1ccc(O)cc1)C(N)=O)C(C)C)NC(=O)[C@H](Cc1c[nH]c2ccccc12)NC(=O)[C@H](Cc1ccccc1)NC(=O)[C@H](CCC(=O)O)NC(=O)[C@H](CC(C)C)NC(=O)[C@H](CC(=O)O)NC(=O)[C@H](CC(=O)O)NC(=O)[C@H](CO)NC(C)=O)C(C)C)C(=O)N[C@@H](Cc1ccc(O)cc1)C(N)=O` (I: Ac-SDDLEFWCHVMY-NH2 / II: Ac-SDDLEFWCHVMY-NH2; disulfide I:8-II:8), the Kd in data set [1] is 2.3 ×10⁻³ /s; in data set [2], 0.37 nM; in data set [5] it was 1.12 nM; in data set [6] it was 0.99 nM; in data set [7] it was “Not Active”; in data set [8], “Not Active”. The Kd entry in data set [9], in data set [10] and in [11] was “Not Active” each time. The Stability entry in data set [14] was “Unstable”; in data set [15], “Stable”; in data set [16], “Unstable”; in data set [17], “Unstable”. Further, the inhibition result in data set [12] and in data set [13] was “Dose-dependent effect” each time. This compound also had a Ka in data set [4] of 61.9 ×10⁵ /M/s.
Take `CC[C@H](C)[C@H](NC(=O)[C@H](Cc1cnc[nH]1)NC(=O)[C@H](CSSC[C@H](NC(=O)[C@H](Cc1c[nH]c2ccccc12)NC(=O)[C@H](CC(C)C)NC(=O)[C@H](CCC(=O)O)NC(=O)[C@H](CC(C)C)NC(=O)[C@H](CC(=O)O)NC(=O)[C@H](CC(=O)O)NC(=O)[C@H](CO)NC(C)=O)C(=O)N[C@@H](Cc1cnc[nH]1)C(=O)N[C@H](C(=O)N[C@@H](CCSC)C(=O)N[C@@H](Cc1ccc(O)cc1)C(N)=O)[C@@H](C)CC)NC(=O)[C@H](Cc1c[nH]c2ccccc12)NC(=O)[C@H](CC(C)C)NC(=O)[C@H](CCC(=O)O)NC(=O)[C@H](CC(C)C)NC(=O)[C@H](CC(=O)O)NC(=O)[C@H](CC(=O)O)NC(=O)[C@H](CO)NC(C)=O)C(=O)N[C@@H](CCSC)C(=O)N[C@@H](Cc1ccc(O)cc1)C(N)=O` (I: Ac-SDDLELWCHIMY-NH2 / II: Ac-SDDLELWCHIMY-NH2; disulfide I:8-II:8): the figures for the Kd in [1] and in [2] were 0.57 ×10⁻³ /s and 0.044 nM, respectively. In data set [3], the IC50 stood at 7.3 nM. Besides, the Ka in [4] worked out at 128 ×10⁵ /M/s.
